ChEMBL document CHEMBL3286257, “Development of second generation EP2 antagonists with high selectivity” (Eur J Med Chem, 2014)

Legend:
[1] = target: T1, Prostaglandin D2 receptor (Homo sapiens) (UniProt Q13258); assay: Antagonist activity at DP1 receptor (unknown origin) expressed in rat C6 cells by TR-FRET assay; type: cell-based
T1 sequence (whole entry): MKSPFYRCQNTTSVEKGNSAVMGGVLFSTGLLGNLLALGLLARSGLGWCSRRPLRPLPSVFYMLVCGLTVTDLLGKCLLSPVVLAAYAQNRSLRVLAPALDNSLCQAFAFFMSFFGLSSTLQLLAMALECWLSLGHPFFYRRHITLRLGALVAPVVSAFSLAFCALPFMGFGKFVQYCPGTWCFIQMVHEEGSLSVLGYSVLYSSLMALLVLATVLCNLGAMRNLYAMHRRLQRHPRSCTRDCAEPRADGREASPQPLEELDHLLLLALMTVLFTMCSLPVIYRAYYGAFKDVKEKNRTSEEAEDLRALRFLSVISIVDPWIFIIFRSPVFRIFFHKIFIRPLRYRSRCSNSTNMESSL

[2] = target: Prostaglandin E2 receptor EP4 subtype (Homo sapiens) (UniProt P35408); assay: Antagonist activity at EP4 receptor (unknown origin) expressed in rat C6 cells assessed as inhibition of PGE2-induced response; type: cell-based
EP2 receptor = assay: Therapeutic index, ratio of CC50 for rat C6 cells to KB for EP2 receptor (unknown origin); type: cell-based; conditions: read-out: TI
Homo sapiens [3] = species: Homo sapiens; assay: Selectivity index, ratio of KB for DP1 receptor (unknown origin) to KB for EP2 receptor (unknown origin)
C6 = assay: Cytotoxicity against rat C6 cells; type: cell-based; conditions: c6
Homo sapiens [4] = species: Homo sapiens; assay: Selectivity index, ratio of KB for IP receptor (unknown origin) to KB for EP2 receptor (unknown origin)
[5] = target: Prostacyclin receptor (Homo sapiens) (UniProt P43119); assay: Antagonist activity at IP receptor (unknown origin) expressed in rat C6 cells by TR-FRET assay; type: cell-based
Homo sapiens [6] = species: Homo sapiens; assay: Selectivity index, ratio of KB for EP4 receptor (unknown origin) to KB for EP2 receptor (unknown origin)
[7] = target: Prostaglandin E2 receptor EP2 subtype (Homo sapiens) (UniProt P43116); assay: Antagonist activity at EP2 receptor (unknown origin) expressed in rat C6 cells assessed as inhibition of PGE2-induced response; type: cell-based
[8] = Metabolic stability of the compound in mouse liver microsomes assessed as compound remaining at 10 uM after 30 mins; type: ADME; conditions: read-out: Stability
[9] = Metabolic stability of the compound in human liver microsomes assessed as compound remaining at 10 uM after 30 mins; type: ADME; conditions: read-out: Stability
[10] = Metabolic stability of the compound in human liver microsomes assessed as compound remaining at 10 uM after 15 mins; type: ADME; conditions: read-out: Stability
[11] = Metabolic stability of the compound in human liver microsomes assessed as compound remaining at 10 uM after 60 mins; type: ADME; conditions: read-out: Stability
[12] = Aqueous solubility of the compound by nephelometry method; type: physicochemical; conditions: buffer
[13] = Metabolic stability of the compound in mouse liver microsomes assessed as compound remaining at 10 uM after 15 mins; type: ADME; conditions: read-out: Stability
[14] = Metabolic stability of the compound in mouse liver microsomes assessed as compound remaining at 10 uM after 60 mins; type: ADME; conditions: read-out: Stability

Sequence of Prostaglandin E2 receptor EP2 subtype (Homo sapiens) (P43116 whole entry): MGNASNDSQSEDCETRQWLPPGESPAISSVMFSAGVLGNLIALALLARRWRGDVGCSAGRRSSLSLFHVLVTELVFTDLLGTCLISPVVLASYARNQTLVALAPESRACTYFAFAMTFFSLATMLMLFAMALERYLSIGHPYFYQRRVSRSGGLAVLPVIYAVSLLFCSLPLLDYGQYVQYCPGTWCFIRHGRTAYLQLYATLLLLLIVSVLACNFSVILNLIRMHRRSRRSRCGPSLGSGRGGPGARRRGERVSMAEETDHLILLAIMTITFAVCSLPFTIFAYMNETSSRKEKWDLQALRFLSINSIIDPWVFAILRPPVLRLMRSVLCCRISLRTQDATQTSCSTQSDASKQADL
Sequence of Prostacyclin receptor (Homo sapiens) (P43119 whole entry): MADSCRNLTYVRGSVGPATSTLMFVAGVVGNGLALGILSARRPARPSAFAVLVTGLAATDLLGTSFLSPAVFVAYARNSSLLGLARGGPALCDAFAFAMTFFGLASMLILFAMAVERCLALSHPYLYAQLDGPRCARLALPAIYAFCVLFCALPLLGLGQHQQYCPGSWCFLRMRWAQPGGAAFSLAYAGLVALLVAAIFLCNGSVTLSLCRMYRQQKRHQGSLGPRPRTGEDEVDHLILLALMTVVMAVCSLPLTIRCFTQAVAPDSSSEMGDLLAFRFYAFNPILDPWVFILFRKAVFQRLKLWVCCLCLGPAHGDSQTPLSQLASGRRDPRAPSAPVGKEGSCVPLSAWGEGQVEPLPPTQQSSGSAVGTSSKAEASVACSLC
Sequence of Prostaglandin E2 receptor EP4 subtype (Homo sapiens) (P35408 whole entry): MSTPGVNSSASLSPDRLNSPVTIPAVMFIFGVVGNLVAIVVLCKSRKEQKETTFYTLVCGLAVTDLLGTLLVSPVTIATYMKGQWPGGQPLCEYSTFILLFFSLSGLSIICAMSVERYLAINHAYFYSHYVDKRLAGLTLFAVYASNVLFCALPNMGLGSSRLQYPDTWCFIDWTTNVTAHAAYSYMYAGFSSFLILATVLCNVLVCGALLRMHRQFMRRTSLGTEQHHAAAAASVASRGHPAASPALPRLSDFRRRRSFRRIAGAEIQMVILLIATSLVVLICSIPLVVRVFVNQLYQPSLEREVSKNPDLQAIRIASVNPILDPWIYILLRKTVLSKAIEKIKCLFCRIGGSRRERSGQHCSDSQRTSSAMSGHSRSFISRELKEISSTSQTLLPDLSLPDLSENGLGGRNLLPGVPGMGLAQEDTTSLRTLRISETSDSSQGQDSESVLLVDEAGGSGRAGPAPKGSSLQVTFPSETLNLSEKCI

Compound: Cc1cc2ccccc2n1CCNC(=O)c1ccc(N2CCN(C)CC2)c(F)c1
- Kb [1]: 980 nM
- Kb [2]: 4760 nM
- selectivity ratio (EP2 receptor): 6660
- Ratio (Homo sapiens [3]): 22
- CC50 (C6): 300000 nM
- Ratio (Homo sapiens [4]): 1420
- Kb [5]: 64000 nM
- Ratio (Homo sapiens [6]): 106
- Kb [7]: 45 nM

Compound: O=C(NC1CCc2[nH]c3ccccc3c2C1)c1ccc(N2CCOCC2)cc1 (configuration not stated)
- Kb [7]: > 1000 nM

Compound: Cc1cc2ccccc2n1CCNC(=O)c1ccc2[nH]nnc2c1
- Kb [7]: 87.5 nM

Compound: CC(=O)Oc1ccc(C(=O)NCCn2c(C)cc3ccccc32)cc1
- Kb [7]: 150 nM

Compound: CCN(CC)C(=O)c1ccc(C(=O)NCCn2c(C)cc3ccccc32)cc1
- Kb [7]: 800 nM

Compound: Cc1cc2ccccc2n1CCNC(=O)c1ccc2[nH]c(=S)[nH]c(=O)c2c1
- Kb [7]: 84.1 nM

Compound: Cc1[nH]c2ccccc2c1CCNC(=O)c1ccc(N2CCN(C)CC2)cc1
- Kb [7]: 135 nM

Compound: Cc1cc2ccccc2n1CCNC(=O)c1ccc(C2CCCCC2)cc1
- Kb [7]: 120 nM

Compound: Cc1cc2cc(F)ccc2n1CCNC(=O)c1ccc(N2CCN(C)CC2)c(F)c1
- Kb [7]: 62.2 nM

Compound: CCNc1ncc(C(=O)NCCC2C(C)=Nc3ccccc32)cn1 (configuration not stated)
- Kb [7]: 155 nM

Compound: COc1ccc(C(=O)NCCn2c(C)cc3ccccc32)cc1
- Kb [7]: 75.6 nM

Compound: Cc1cc2cc(F)ccc2n1CCNC(=O)c1ccc(N2CCOCC2)cc1
- Kb [7]: 14.9 nM

Compound: Cc1cc2ccccc2n1CCNC(=O)c1ccc(C#N)cc1F
- Kb [7]: 280 nM

Compound: COc1ccc(C(=O)NCCn2c(C)cc3ccccc32)cc1OC
- Kb [7]: 22.3 nM

Compound: Cc1[nH]c2ccccc2c1CCNC(=O)c1ccc(N2CCOCC2)cc1
- Kb [1]: 7790 nM
- Kb [2]: 75600 nM
- selectivity ratio (EP2 receptor): 10900
- remaining at 0.5 h, 10 µM [8]: 10%
- CC50 (C6): 311000 nM
- remaining at 0.5 h, 10 µM [9]: 58%
- remaining at […], 10 µM [10]: 75%
- Kb [5]: 85000 nM
- remaining at 1 h, 10 µM [11]: 40%
- solubility kinetic [12]: < 25 µM
- remaining at […], 10 µM [13]: 37%
- remaining at 1 h, 10 µM [14]: 0.5%

Compound: Cc1[nH]c2ccccc2c1CCNC(=O)c1ccc(N2CCCCC2)cc1
- Kb [7]: 19.8 nM

Compound: Cc1cc2ccccc2n1CCNC(=O)c1cccc(S(N)(=O)=O)c1
- Kb [7]: > 1000 nM

Compound: Cc1cc2ccccc2n1CCNC(=O)c1ccc(OC2CCNCC2)cc1
- Kb [7]: > 1000 nM

Compound: O=C(NCCn1c(C(F)(F)F)cc2ccccc21)c1ccc(N2CCOCC2)cc1
- Kb [7]: 120 nM

Compound: Cc1cc2ccccc2n1CCNC(=O)c1ccc(CN2CCN(C)CC2)cc1
- Kb [7]: > 1000 nM

Compound: CC(=O)N1CCN(c2ccc(C(=O)NCCn3c(C)cc4ccccc43)cc2)CC1
- Kb [7]: 50.2 nM

Compound: Cc1cc2ccccc2n1CCNC(=O)c1cnc(Nc2ccccc2)nc1
- remaining at 0.5 h, 10 µM [8]: 59%
- remaining at 0.5 h, 10 µM [9]: 67%
- remaining at […], 10 µM [10]: 88%
- Kb [7]: 1.6 nM
- remaining at 1 h, 10 µM [11]: 50%
- solubility kinetic [12]: < 25 µM
- remaining at […], 10 µM [13]: 71%
- remaining at 1 h, 10 µM [14]: 35%

Compound: Cc1cc2ccccc2n1CCNC(=O)c1ccc(C#N)c(F)c1
- Kb [7]: 140 nM

Compound: CCN(CC)c1ccc(C(=O)OCCn2c(C)cc3ccccc32)cc1
- Kb [7]: > 1000 nM

Compound: Cc1cc2ccccc2n1CCNC(=O)c1ccc(N(C)C)c(F)c1
- Kb [7]: 18.1 nM

Compound: Cc1cc2ccccc2n1CCNC(=O)c1ccc(C(=O)N(C)C)cc1
- Kb [7]: > 1000 nM

Compound: Cc1cc2ccccc2n1CCNC(=O)c1cccnc1N
- Kb [7]: 520 nM

Compound: CCN(CC)c1ccc(C(=O)NCCn2cnc3ccccc32)cc1
- Kb [7]: > 1000 nM

Compound: Cc1cc2ccccc2n1CCNC(=O)c1ccc(N(C)C)cc1
- Kb [1]: 6430 nM
- Kb [2]: 51000 nM
- remaining at 0.5 h, 10 µM [8]: < 1%
- CC50 (C6): 310000 nM
- remaining at 0.5 h, 10 µM [9]: 7%
- remaining at […], 10 µM [10]: 27%
- Kb [5]: 4700 nM
- Kb [7]: 9.8 nM
- remaining at 1 h, 10 µM [11]: < 1%
- solubility kinetic [12]: < 25 µM
- remaining at […], 10 µM [13]: < 1%
- remaining at 1 h, 10 µM [14]: < 1%

Compound: CCN(CC)c1ccc(C(=O)NCCn2c(C)cc3ccccc32)cc1F
- Kb [7]: 4.6 nM

Compound: Cc1cc2ccccc2n1CCNC(=O)c1ccc(N2CCNCC2)cc1
- Kb [7]: 410 nM

Compound: Cc1cc2ccccc2n1CCNC(=O)c1ccc(N)cc1
- Kb [7]: 210 nM

Compound: CC(=O)Nc1ccc(C(=O)NCCn2c(C)cc3ccccc32)cc1F
- Kb [7]: 530 nM

Compound: CCN(CC)c1ccc(C(=O)NCCn2c(C)cc3ccccc32)cc1OC
- Kb [7]: 61.2 nM

Compound: Cc1cc2ccccc2n1CCNC(=O)c1cccc(N2CCOCC2)c1
- Kb [7]: > 1000 nM

Compound: Cc1cc2ccccc2n1CCNC(=O)c1cnc2ccc(F)cc2c1O
- Kb [7]: 175 nM

Compound: Cc1[nH]c2ccccc2c1CCNC(=O)c1ccc(N(C)C)cc1
- Kb [1]: 3610 nM
- Kb [2]: 16400 nM
- remaining at 0.5 h, 10 µM [8]: 0%
- CC50 (C6): 320000 nM
- remaining at 0.5 h, 10 µM [9]: 17%
- remaining at […], 10 µM [10]: 34%
- Kb [5]: 63100 nM
- Kb [7]: 10.8 nM
- remaining at 1 h, 10 µM [11]: 4%
- solubility kinetic [12]: < 25 µM
- remaining at […], 10 µM [13]: < 1%
- remaining at 1 h, 10 µM [14]: 0%

Compound: COc1ccc(C(=O)NCCn2c(C)cc3ccccc32)cc1F
- Kb [7]: 86.8 nM

Compound: Cc1cc2ccccc2n1CCNC(=O)C1CCC(=O)N1 (configuration not stated)
- Kb [7]: > 1000 nM
